Experimental data published in patent US20070213291A1, “Therapeutically useful synthetic oligonucleotides” (priority 1999, published 2007).

Columns and labels:
[1] = system: EL-4 murine T lymphoma cells; experiment: EL-4 murine T lymphoma in C57/BL6 mice; format: in vivo; details: after 4 weeks of treatment, compared with group 1 (saline)
Protocol: EL-4 murine T lymphoma cells are implanted into C57/BL6 mice. The mice are divided into 6 groups of 10 mice. On day 0, group 1 mice receive saline, group 2 mice receive 3 base GT SEQ ID NO:8, group 3 mice receive 6 base SEQ ID NO:25, group 4 mice receive 6 base AG SEQ ID NO:45, group 5 mice receive 18 base GT SEQ ID NO: 18 and group 6 mice receive 27 base GT SEQ ID NO:1. After 4 weeks of treatment, the mice are sacrificed and tumor mass is determined.

caspase 7 = experiment: Caspase 7 activation by Western blot; format: cell-based, human; details: Jurkat, 72 h, 100 μg/ml (FIG. 3B)
Protocol: Jurkat T cell leukemia cells were incubated for 72 h with 6 base GT SEQ ID NO:25. The cells were washed 3× with PBS, lysed with 10 mM HEPES, pH 7.5 containing 5 mM MgCl2, 1 mM dithiothreitol, 1.5 nM aprotinin, 10 mM leupeptin and 2.5 μm Na orthovanadate, and the protein content of the lysate was determined (Bradford J. Anal. Biochem. 72:248, 1976).
Activated caspase 7 and PARP cleavage were detected by Western blot analysis. Lysate was mixed with Laemmli buffer (Laemmli U. Nature […], 1970), shaken, and heated at 100° C. for 4 min. […] The separated proteins were electroblotted onto a PVDF membrane. Equal protein loading was monitored by Ponceau red staining of the membrane.
The membrane was blocked overnight at 4° C. with a buffer containing 1% Tris-buffered saline (2 mM Tris-HCl, 13.7 mM NaCl, pH 7.6, and 0.1% polyethylenesorbitan monolaurate (TWEEN 20) (TBST) +5% non-fat dry milk. The membrane was washed and was incubated for 1 h at RT with a mouse monoclonal IgG anti-caspase 7 antibody (Pharmingen) (diluted 1:1000 in TBST+1% BSA) or with a mouse monoclonal IgG anti-PARP antibody (diluted 1:1000 in TBST+1% BSA) (Pharmingen). IgG bound to caspase 7 or to PARP was detected with sheep anti-mouse IgG conjugated to horseradish peroxidase (diluted 1:1000 in TBST+5% non-fat dry milk) (Pharmingen). […]

caspase 3 = experiment: Caspase 3 activation, colorimetric (p-nitroanilide peptide cleavage); format: cell-based, human; details: Jurkat, 72 h, 100 μg/ml
Protocol: To determine caspase activation, control and treated cells are washed, fixed, permeabilized and incubated with an FITC-conjugated antibody that recognizes the active form of the caspase (Pharmingen, San Diego, Calif.) using the conditions recommended by the manufacturer. Fluorescence associated with active caspase 3 is analyzed by flow cytometry on a FACSCALIBUR using the program CellQUEST (Becton Dickinson). Alternatively, caspase activation is determined colorimetrically using an assay based on the cleavage of a caspase-specific peptide conjugated to the color reporter molecule p-nitroanilide, which can be quantitated spectrophotometrically at a wavelength of 405 nm.
Jurkat T cell leukemia cells were incubated for 72 h with 33 base GT SEQ ID NO:66; 11 base GT SEQ ID NO:81 (bases 1-11 of GT SEQ ID NO:66), 11 base GT SEQ ID NO:82 (bases 12-22 of GT SEQ ID NO:66), 11 base GT SEQ ID NO:83 (bases 23-33 of GT SEQ ID NO:66) and 15 base ACG SEQ ID NO:67. Active caspase 3 (17-22 kDa) was determined using FITC conjugated antibody (Clone: C92-605) as in Example 28.
Caspase 3 activation also was determined colorimetrically as in Example 28.
Jurkat T cell leukemia cells were incubated for 72 h with 6 base GT SEQ ID NO:25. Caspase 3 activation was determined colorimetrically as in Example 28.

[2] = system: LNCaP human prostate cancer cells; experiment: LNCaP human prostate cancer xenografts in male nude nu/nu mice; format: in vivo; details: after 4 weeks of treatment, compared with other groups (group 1 saline, group 5 BCG A-3)
Protocol: LNCaP human prostate cancer cells are implanted subcutaneously, as xenografts, in male nude nu/nu mice. The mice are divided into 5 groups of 10 mice. On day 0, group 1 mice receive saline, group 2 mice receive 3 base SEQ ID NO:8, group 3 mice receive 6 base GT SEQ ID NO:25, group 4 mice receive 6 base AG SEQ ID NO:45 and group 5 mice receive 45 base BCG A-3 SEQ ID NO:69. After 4 weeks of treatment, the mice are sacrificed and timor mass is determined.

[3] = system: MCF-7 human breast cancer cells; experiment: MCF-7 human breast tumor xenografts in female nude BALB/c mice; format: in vivo; details: after 4 weeks of treatment, compared with other groups (group 1 saline)
Protocol: MCF-7 human breast cancer cells are implanted subcutaneously as xenografts, in female nude BALB/c mice. The mice are divided into 6 groups of 10 mice. […] After 4 weeks of treatment, the mice are sacrificed and tumor mass is determined.

[4] = system: Jurkat human leukemia T cells; experiment: Intracellular calcium (Fluo-3-AM fluorescence); format: cell-based; details: 24 h, 100 μg/ml
Protocol: Increases in intracellular calcium (Ca^2+)i are reported to be associated with apoptosis induction (Lam et al. Mol. Endocrinol. 7:686, 1993). (Ca^2+)i was followed using the fluorescent probe Fluo-3-AM (Cell Permaant, Molecular Probes, Inc., Eugene, Oreg.). An increase in Fluo-3-AM fluorescence is indicative of an increase in (Ca^2+)i.
Jurkat human leukemia T cells were incubated for 24 h with 6 base GT SEQ. NO:25. Cells were collected by centrifugation, suspended in PBS containing 1% FBS and loaded with 10 μM Fluo-3-AM for 1 h at 37° C. Cell fluorescence was measured at 488 nm excitation and 530 nm emission (FL1 detector). Data were analyzed on a FACSCALIBUR using the program CellQUEST (Becton Dickinson).

[5] = system: SK-OV-3 human ovarian cancer cells; experiment: Inhibition of SK-OV-3 cell proliferation (MTT); format: cell-based; details: 100 μg/ml, 48 h, 5×10^5 cells/ml
Protocol: Cells were seeded in 6 (1 ml/well), 24 (0.5 ml/well) or 96 (0.1 ml/well) well flat-bottom microplates and were maintained at 37° C. in a 5% CO2 atmosphere. Unless stated otherwise, 2.5×10^5 cells/ml were incubated with 0 μg/ml (control) and 100 μg/ml (treated) of 2 to 45 base sequences containing A, C, G and T for 48 h.
Cell proliferation was measured using dimethylthiazol-diphenyl-tetrazolium (MTT) reduction (Mosman et al. J. Immunol. Methods 65:55, 1983). MTT was measured at a wavelength of 570 nm using a multiplate spectrophotometer reader (ELX800, Bio-TEK Instruments Inc., Winooski, Vt.).
SK-OV-3 ovarian cancer cells are a p53 mutated, p21/waf-1/Cip deleted, p15^ink4B deleted, p16^Ink4 deleted, metastatichuman solid tumor model. SK-OV-3 cells (5×10^5 cells/ml) were incubated with 2, 6 and 18 base GT sequences (Table 12).

GGGTGG [SEQ ID NO:25]
tumor mass [1]: less tumor mass than group 1 mice
processing of inactive pro-caspase 7 to active caspase 7 (caspase 7): induced processing of inactive pro-caspase 7 (30 kDa) to active caspase 7 (19-20 kDa)
caspase 3 activity greater than in control cells (caspase 3): 323%
tumor mass [2]: less tumor mass than groups 1 and 5 mice
tumor mass [3]: less tumor mass than group 1 mice
increase in cell fluorescence (Fluo-3-AM), indicative of (Ca2+)i [4]: 88%
% INHIBITION of SK-OV-3 human ovarian cancer cell proliferation [5]: 12%
